Here are results for four molecules from ChEMBL document CHEMBL1201862, “PubChem BioAssay data set” (2004).

Some test systems named below: A549; ACHN; BT-549; EKVX; HOP-62; HOP-92; Hs-578T; MDA-MB-435; OVCAR-8; PC-3; RXF 393; SF-268; SK-MEL-2; SK-MEL-5; SN12C; SNB-19; SR; T47D; TK-10; UACC-62.
Test in all cases: NCI-60 cell line screen, 48 h

Molecules are shown by their SMILES.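 Cells were grown in 96-well plates and exposed to each compound for 48 hours at five concentrations; endpoints were interpolated linearly between bracketing concentrations, or set to the highest concentration if not reached. Here, GI50 denotes the concentration required for 50% inhibition of growth.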 Calls of active or inactive are those of the source. No stated cut-off is given here; in the data, active = GI50 up to about 1.1 µM and inactive = higher.

On to `O=C(O)CSc1ccccc1C(=O)O`, for which the GI50 with A549, in the assay with ACHN, with BT-549, in the assay with EKVX, in the assay on HOP-62 and in the assay on HOP-92 was > 100 µM (inactive) in each case. Further, the GI50 in the assay on Hs-578T, in the assay on MDA-MB-435, in the assay with OVCAR-8, with PC-3, in the assay on RXF 393 and in the assay on SF-268 was > 100 µM (inactive) in each case. Further, the GI50 in the assay with SK-MEL-2, in the assay on SK-MEL-5, in the assay with SN12C, with SNB-19, with SR and in the assay with T47D was > 100 µM (inactive) each time. The GI50 in the assay with TK-10 is 22.8 µM (inactive); in the assay with UACC-62 it was > 100 µM (inactive).

With `COc1ccc(CN2C(=O)CCC/C=C\[C@H]2CI)cc1`, the GI50 was 10 µM (inactive) in the assay on A549; 14.3 µM (inactive) in the assay on ACHN; 19.5 µM (inactive) in the assay with BT-549; 10.7 µM (inactive) with EKVX; 16 µM (inactive) in the assay on HOP-62; 12.8 µM (inactive) in the assay on HOP-92. The GI50 in the assay with Hs-578T was 14.2 µM (inactive); in the assay on MDA-MB-435, 12.7 µM (inactive); in the assay with OVCAR-8, 14.4 µM (inactive); in the assay on PC-3 it was 8.07 µM (inactive); in the assay with RXF 393 it was 3.32 µM (inactive); with SF-268 it was 13.4 µM (inactive). Further, the GI50 in the assay on SK-MEL-2 was 11 µM (inactive); in the assay with SK-MEL-5, 12.6 µM (inactive); with SN12C, 14 µM (inactive); in the assay with SNB-19 it was 13.2 µM (inactive); with SR, 11.5 µM (inactive); with T47D, 0.286 µM (active). Besides, the GI50 in the assay with TK-10 was 12.5 µM (inactive); with UACC-62, 10.8 µM (inactive).

Regarding `CCOC(=O)Cn1nnc2ccc(Nc3nc4ccccc4nc3C(=O)OCC)cc21`, the GI50 is > 100 µM (inactive) with A549; > 100 µM (inactive) in the assay with ACHN; 73.8 µM (inactive) with BT-549; > 100 µM (inactive) with EKVX; 38.3 µM (inactive) in the assay with HOP-62; 56.2 µM (inactive) in the assay on HOP-92. For the same molecule, the GI50 in the assay on Hs-578T is 33.5 µM (inactive); with MDA-MB-435, > 100 µM (inactive); in the assay with OVCAR-8, > 100 µM (inactive); in the assay on PC-3, > 100 µM (inactive); in the assay on RXF 393, 37.9 µM (inactive); in the assay with SF-268 it was 27.2 µM (inactive). The GI50 with SK-MEL-2 is > 100 µM (inactive); with SK-MEL-5, > 100 µM (inactive); with SN12C, > 100 µM (inactive); in the assay with SNB-19, 69.5 µM (inactive); with SR, > 100 µM (inactive); in the assay on T47D, > 100 µM (inactive). Also, the GI50 is 45.1 µM (inactive) in the assay on TK-10 and 65.3 µM (inactive) in the assay with UACC-62.

Take `COc1ccc(/N=C2\C(=O)C3=C(OC(C)(C)CC3)c3ccccc32)cc1`: the GI50 with A549 was 0.946 µM (active); in the assay with ACHN, 0.845 µM (active); in the assay on BT-549 it was 1.1 µM (active); in the assay on EKVX it was 0.993 µM (active); in the assay on HOP-62, 0.91 µM (active); with HOP-92 it was 2.66 µM (inactive). In addition, the GI50 is 1.63 µM (inactive) with Hs-578T; 0.264 µM (active) with MDA-MB-435; 0.43 µM (active) in the assay on OVCAR-8; 1.29 µM (inactive) in the assay on PC-3; 1.09 µM (active) with RXF 393; 1.8 µM (inactive) with SF-268. The GI50 was 1.16 µM (inactive) in the assay with SK-MEL-2; 0.838 µM (active) with SK-MEL-5; 0.889 µM (active) in the assay with SN12C; 0.916 µM (active) in the assay with SNB-19; 0.935 µM (active) with SR; 0.839 µM (active) in the assay on T47D. The GI50 is 2.33 µM (inactive) in the assay on TK-10 and 0.94 µM (active) with UACC-62.
